Reference: US20240342138A1, “MICROTUBULE TARGETING AGENTS” (BPGbio, Inc., priority 2023, published 2024)

Columns and labels:
[1] = test system: COLO205 tumors; assay: Colorectal cancer xenograft model; type: in vivo, nude mice
Procedure: FIG. 11A-11E show the efficacy of Compound 1 in a colorectal cancer xenograft model (COLO205). A) In vitro potency of Compound 1 in COLO205 cells as evaluated by ATPlite 1Step™ Perkin Elmer (performed by NTRC Oncolines). B) COLO205 cells were implanted subcutaneously in nude mice and tumors were allowed to grow to a volume of 210 mm3 followed by randomization of animals into three (3) groups (vehicle control, 75 mg/kg, 150 mg/kg Compound 1) with 12 animals per group. A Compound 1 solid dispersion was prepared prior to each dosing and administered by oral gavage two times a day (BID). Mean tumor volume of each group over time and the growth of tumor in each individual animal was graphed. For each individual animal of […] group TGI (%) was calculated based on the tumor growth inhibition of individual tumor at each given day of the study compared to the average of the group for that given day of the study. P-values were calculated using two-tailed distribution and two-sample equal variance (homoscedastic) for each group treated with Compound 1 for each given day of the study in reference to vehicle control. NS p>0.05; *p≤0.05; **p≤0.01; ***p p≤0.001; **** p≤0.0001. C) Plasma and tumor tissues from vehicle (n=11), 75 mg/kg (n=12), and 150 mg/kg (n=11) groups were harvested at the end of the study. The concentration of Compound 1 in the plasma or tumor tissue was plotted as a column plot (Average t SEM) or Scatter Plot with Median. D) Tumor tissues from vehicle (n=11), 75 mg/kg (n=12) and 150 mg/kg (n=11) groups were harvested at the end of the study when each animal was sacrificed. The level of two biomarkers, pHH3 and CCNB1 in each tissue was measured and graphed as the Min-to-Max plot and scatter plot of the level of each biomarker. The line in the scatter plot indicates the group mean. E) Body weight of each individual animal was measured on each day of the study and graphed using Graphpad Prism.
(§1) Anti-tumor efficacy of Compound 1 was evaluated against three (3) different preclinical oncology mice models of colorectal cancer, prostate cancer, and lung adenocarcinoma (see Table 5 below). For this purpose, an oral formulation of Compound 1 was used.
COLO205 is a colorectal adenocarcinoma (Dukes' Type D) cell line of epithelial origin isolated from human colon. COLO205 is a model that is well validated in the cancer field for in vivo efficacy evaluation of oncology therapeutics. Nude mice were implanted subcutaneously with COLO205 cells and tumors were grown to an average tumor volume of 113 mm^3 followed by randomization into three (3) groups consisting of vehicle control, 75 mg/kg and 150 mg/kg Compound 1 (12 animals per group). A Compound 1 solid dispersion was administered by oral gavage two times a day (BID). Originally, the study was planned for 28 days of dosing; however, several animals left the study after 17 days of dosing due to tumor size reaching the limit of 2000 mm^3. Therefore, only the data for the first 17 days of dosing were used for the analysis. Additionally, one animal from vehicle group and one animal from 150 mg/kg group left the study prior to day 17 and were therefore removed from the analysis. The percentage of tumor growth inhibition (TGI %) was calculated for each individual animal.

[2] = test system: DU145 tumors; assay: Prostate cancer xenograft model; type: in vivo, nude mice
Procedure: FIG. 12A-12E show the efficacy of Compound lin a prostate cancer xenograft model (DU145). A) In vitro potency of Compound 1 in DU145 cells as evaluated by ATPlite 1Step™ Perkin Elmer (performed by NTRC Oncolines). B) DU145 cells were implanted subcutaneously in nude mice and tumors were allowed to grow to a volume of 210 mm^3 followed by randomization of animals into three (3) groups (vehicle control, 75 mg/kg, 150 mg/kg Compound 1) with 12 animals per group. A Compound 1 solid dispersion was prepared prior to each dosing and administered by oral gavage two times a day (BID). Mean tumor volume of each group over time and the growth of tumor in each individual animal was graphed. For each individual animal of vehicle group TGI (%) was calculated based on the tumor growth inhibition of individual tumor at each given day of the study compared to the average of the group for that given day of the study. P-values were calculated using two-tailed distribution and two-sample equal variance (homoscedastic) for each group treated with Compound 1 for each given day of the study in reference to vehicle control. NS p>0.05; *p≤0.05; **p≤0.01; ***p p≤0.001; **** p≤0.0001. C) Plasma and tumor tissues from vehicle (n=11), 75 mg/kg (n=12), and 150 mg/kg (n=12) groups were harvested at the end of the study. The concentration of Compound lin the plasma or tumor tissue was plotted as a column plot (Average t SEM) or Scatter Plot with Median. D) Tumor tissues from vehicle (n=12), 75 mg/kg (n=12) and 150 mg/kg (n=12) groups were harvested at the end of the study when each animal was sacrificed. The level of two biomarkers, pHH3 and CCNB1 in each tissue was measured and graphed as the Min-to-Max plot and scatter plot of the level of each biomarker. The line in the scatter plot indicates the group mean. E) Body weight of each individual animal was measured on days 0, 2, 5, 7, 9, 12, 14, 16, 19, 21, 23, and 26 and graphed using Graphpad Prism.
as §1
DU145 is an epithelial cell carcinoma derived from the metastatic site (brain). DU145 cells were implanted subcutaneously in nude mice and tumors were allowed to grow to an average volume of 106 mm^3 followed by randomization into three (3) groups consisting of vehicle control, 75 mg/kg and 150 mg/kg Compound 1 (12 animals per group). A Compound 1 solid dispersion was administered by oral gavage two times a day (BID). All animals, except one animal from vehicle group, survived throughout the 26 days of the study. Any animal that left the study prior to Day 26 was eliminated from all calculations. The percentage of tumor growth inhibition (TGI %) was calculated for each individual tumor. The mean tumor volume of each group over time and the growth of tumor in each individual animal is plotted below. The percentage of tumor growth inhibition (TGI %) was calculated for each individual animal.

SMILES: COc1ccccc1-c1nc(CNC(=O)c2ccccc2OC(F)F)n[nH]1 [Compound 1, 2-(difluoromethoxy)-N-[[5-(2-methoxyphenyl)-1H-1,2,4-triazol-3-yl]methyl]benzamide]
- TGI (%) ([1]; 75 mg/kg BID oral, day 17): 20.13%
- Maximum TGI (%), end of the study ([1]; 150 mg/kg BID oral, day 17): 35.38%
- Body weight ([1]; 150 mg/kg group, FIG. 11E): no significant body weight change by the end of the study
- Level of Compound 1 in plasma and tumor tissue ([1]; 75 vs 150 mg/kg, end of study, FIG. 11C): dose-dependent elevation
- cyclin B1 and phospho Histone H3 (pHH3) in tumor tissue ([1]; markers of M phase arrest, FIG. 11D): increase
- TGI (%) ([2]; 75 mg/kg BID oral, day 26): 22%
- Level of the drug in the plasma and tumor tissue ([2]; 75 mg/kg to 150 mg/kg, FIG. 12C): dose-dependent increase
- Maximum TGI (%), end of the study ([2]; 150 mg/kg BID oral (b152 prints 150 mg/g), day 26): 38%
- Body weight ([2]; 26 days, FIG. 12E): no body weight loss related to the drug
- Level of biomarkers CCNB1 and pHH3 ([2]; tumor tissue, FIG. 12D): increase
